Laboratory results reported in patent US20050181459A1, “Method for mapping and eliminating T cell epitopes” (priority 2002, published 2005).
Where no end group is shown, it is not given here.

Test system: not listed separately
Test: Solubility of IFNα peptides
Format: physicochemical
Details: in the T cell assay of Example 6

Q: With “EMIQQIFNLFSTKDS [compound 20, EMIQQIFNLFSTKDS]” as the sequence, how does the solubility of peptide read?
A: insoluble

Q: With “VLHEMIQQIFNLFST [compound 19, VLHEMIQQIFNLFST]” as the sequence, how does the solubility of peptide read?
A: insoluble

Test system: PBMC
Test: T cell activation assay (time course) of IFNα peptides, PBMC from 20 healthy donors and 20 IFN α2b-treated HCV patients
Format: cell-based, human
Details: 20 healthy donors and 20 HCV patients previously treated with IFN α2b; 6-9 days culture; 3H-thymidine

Q: With “FNLFSTKDSSAAWDE (Potential T-cell Epitopes) [peptide 22]” as the sequence, how does the “percentage of donors whose PBMC responded to a peptide (SI greater than about 1.95)” value (shortened to “percentage”) read?
A: 15%

Q: With “KEDSILAVRKYFQRI (Potential T-cell Epitopes) [compound 38]” as the sequence, how does the “percentage” value read?
A: 15%

Q: Which “percentage” value does the source give for “RRISLFSCLKDRHDF (Potential T-cell Epitopes) [compound 8]” here?
A: 15%

Q: With “SILAVRKYFQRITLY (Potential T-cell Epitopes) [peptide 39]” as the sequence, how does the “percentage” value read?
A: 25%

Q: For “SLFSCLKDRHDFGFP (Potential T-cell Epitopes) [compound 9]”, which “percentage” value is on record?
A: 15%
